ChEMBL document CHEMBL1131774, “Synthesis of water-soluble phenytoin prodrugs” (Bioorg Med Chem Lett, 1999)

How the values were obtained:
Assay type in all cases: ADME, organism-based
Conditions in all cases: rat, read-out: Hydrolysis
[1] = Compound was tested for percent hydrolysis in whole blood after a time interval of 2.0 min
[2] = Compound was tested for percent hydrolysis in whole blood after a time interval of 7.0 min
[3] = Compound was tested for percent hydrolysis in whole blood after a time interval of 60.0 min
[4] = Compound was tested for percent hydrolysis in whole blood after a time interval of 0.5 min
[5] = Compound was tested for percent hydrolysis in whole blood, after a time interval of 15.0 min
[6] = Compound was tested for percent hydrolysis in whole blood after a time interval of 180.0 min
[7] = Compound was tested for percent hydrolysis in whole blood after a time interval of 5.0 min

| metabolised at 2 min [1] | metabolised at 7 min [2] | metabolised at 1 h [3] | metabolised at 0.5 min [4] | metabolised at 0.25 h [5] | metabolised at 3 h [6] | metabolised at 5 min [7] | Structure (SMILES) |
| --- | --- | --- | --- | --- | --- | --- | --- |
| 11.6% | 25% | 87.5% | 7.95% | 45.4% | 95.3% |  | O=C1NC(c2ccccc2)(c2ccccc2)C(=O)N1COP(=O)(O)O [FOSPHENYTOIN SODIUM] |
| 80.1% |  | 99.3% | 28.7% | 93.6% |  | 91% | O=C(CN1CCOCC1)OCN1C(=O)NC(c2ccccc2)(c2ccccc2)C1=O |
| 96.5% |  |  | 49.2% |  |  | 97.5% | O=C(CN1CCCCC1)OCN1C(=O)NC(c2ccccc2)(c2ccccc2)C1=O |

More lines, now with the values behind:

| Structure (SMILES) | metabolised at 2 min [1] | metabolised at 7 min [2] | metabolised at 1 h [3] | metabolised at 0.5 min [4] | metabolised at 0.25 h [5] | metabolised at 3 h [6] | metabolised at 5 min [7] |
| --- | --- | --- | --- | --- | --- | --- | --- |
| CC(OC(=O)CCCC(=O)O)N1C(=O)NC(c2ccccc2)(c2ccccc2)C1=O (stereo unspecified) | 26.7% | 36.9% | 39.6% | 15% | 37.2% | 45.1% |  |
| CC(OC(=O)CCC(=O)O)N1C(=O)NC(c2ccccc2)(c2ccccc2)C1=O (stereo unspecified) | 42.4% | 52.8% | 59.6% | 25.7% | 55.9% | 69.2% |  |
